Point of comparison: `O=C(Nc1nc2c(ncn2CC(O)CF)c(=O)[nH]1)c1ccccc1` (racemic), melting point 178 °C. Against it:
- O=C1CCC(c2c[nH]c3cccc(F)c23)CC1 — lower, 104 to 106 °C
- O=C(OCc1cc(OCCCBr)c(OCCCBr)c(OCCCBr)c1)c1ccccc1 — lower, 53 to 54 °C
- c1ccc(N2c3ccccc3[C@@H]3CN(CC4CCC4)CC[C@H]32)cc1 — lower, 76.5 to 77 °C
- CC(=O)c1ccc(C(F)(F)C(F)(F)c2ccccc2)cc1 — lower, 128 to 133 °C
- CC(C)OC(=O)c1ccc(OCC(=NO)c2ccc3c(c2)C(C)(C)CCC3(C)C)cc1O — lower, 130 °C
- O=C(Cl)c1cc(Cl)cc2c1OCCO2 — lower, 140 °C
- c1coc(-c2n[nH]c3c2Cc2ccccc2-3)c1 — higher, 195 to 197 °C
- COC(=O)c1ccccc1-c1ccc(CNc2nc(C(F)(F)F)nc3ccccc23)cc1 — lower, 135 to 142 °C
- CS(=O)(=O)OCCNc1ccc([N+](=O)[O-])cc1Cl — lower, 114 to 115 °C
- CCC(=O)OC1CC2(CCN(CCCC(=O)c3ccc(F)cc3)C2)c2ccc(C)cc21 (stereo not given) — lower, 153 to 155 °C
- CCOC(=O)N1CCN(c2nn(-c3ccc(C(F)(F)F)cc3)c3ccccc23)CC1 — lower, 123 to 126 °C
- NC(=O)[C@@H]1C[C@H](S)CN1C(=O)OCc1ccc([N+](=O)[O-])cc1 — lower, 158 to 162 °C
- COc1ccc(CN2C(=O)[C@H]3CCC[C@H]3N(C(=O)CN3C(=O)c4ccccc4C3=O)c3ccccc32)cc1 (relative stereo) — higher, 237 to 238 °C
- N#CNc1nnc(-c2ccc3occ(-c4cccc(OC(F)(F)F)c4)c3c2)o1 — higher, 237 to 238 °C
- O=CNCc1cc(C(O)CNCCCCCCOCCCCc2ccccc2)ccc1O (stereo not given) — lower, 76 to 77 °C
- ON=C(Cc1ccccc1)c1ccccn1 — lower, 151 to 153 °C
- CNC(=O)c1c(Nc2ccccc2[N+](=O)[O-])c(C)nn1C — higher, 223 to 225 °C
- COCCOCCOCCOCC(N)C(=O)O (stereo not given) — higher, 184 to 185 °C
- CSc1ncc(C(O)c2ccc(C)nc2)c(O)n1 (stereo not given) — lower, 140 °C
- OCc1cccc(-c2ncc(Br)cn2)c1 — lower, 115 to 116 °C
- COc1ccccc1Sc1c(O)cc(-c2ccccc2)oc1=O — higher, 208 to 209 °C
- CCOC(=O)c1cn(NCCC=O)c2nc(C)ccc2c1=O — not separable, 175 to 178 °C
- Cn1cc(-c2ncc(-c3ccc4cc(O)ccc4c3)o2)c2ccccc21 — higher, 188 to 190 °C
- CCCCOCCOc1ccc(-c2ccc3c(c2)C=C(C(=O)Nc2ccc(CP4(=O)OCCCO4)cc2)CCS3(=O)=O)cc1 — higher, 222 to 223 °C
- Cn1cncc1CCNC(=O)c1[nH]c2ccc(Cl)cc2c1S(=O)(=O)c1ccccc1 — higher, 257 to 258 °C
- CC1Cc2c(N3C(=O)C4CCCCN4C3=O)ccc(Cl)c2O1 (stereo not given) — lower, 145 to 148 °C
- Cc1cccc(C)c1N(CCCc1cccnc1)C(=O)Cn1ccnc1C — lower, 89 to 90 °C
- O=C(CCc1cccnc1)c1c(O)c2cccnc2n(-c2ccccc2)c1=O — higher, 219 to 220 °C
- CC(C)CC(=O)N1CCC(c2nc3cc(-c4ccc(-n5cnnn5)cc4F)ccc3o2)CC1 — lower, 168 to 172 °C
- Cc1cc(O)ccc1NCCc1ccccn1 — lower, 138 to 140 °C
- CN1CCCCCCC1=NC(=S)Nc1ccccc1 — lower, 123 to 125 °C
- COc1cnc2c(c1)c(CCNC(=O)c1ccco1)c1n2CCCO1 — lower, 70 to 71 °C
- O=C(Cc1csc(-c2cccc(O)c2)n1)NC1C(=O)N2C(C(=O)OC(c3ccccc3)c3ccccc3)=CCSC12 (stereo not given) — lower, 152 to 154 °C
- CC(C)Oc1cc(CO)n(Cc2ccc(Cl)cc2Cl)n1 — lower, 89 to 90 °C
- CCOC(=O)C1=C(COCCOCCN)NC(C)=C(C(=O)OC)C1c1cccc(Cl)c1Cl (single isomer, unassigned; (-)) — lower, 69 to 71 °C
- O=C1CCCCCCCCCCCCCCCCCCCCCCC1O (stereo not given) — lower, 39 to 40 °C
- CCOc1ccc2c(c1)n(C1CCCCC1)c(=O)n2Cc1ccc(NC(=O)N(CC)CC)cc1OC — lower, 158 °C
- COc1cc(Nc2nc3ccnc(-c4cccc(N)c4)c3o2)cc(OC)c1OC — lower, 120 to 126 °C
- ClCn1cc(Cl)c(-c2cc(Cl)cc(Cl)c2)n1 — lower, 88 °C
- CC(=O)Cn1nc(-c2sc(N)nc2-c2ccccc2)ccc1=O — higher, 216 to 219 °C
- ON=C1CC(c2ccccc2)Cc2ccccc21 (stereo not given) — higher, 195 °C
- COc1cc(OC)c(C(O)=S)cc1C — lower, 151 to 153 °C
- Cc1cccc(-c2sc(N)nc2-c2ccc3ncoc3c2)n1 — higher, 188 to 190 °C
- CCCCCCCCCCCCCCCCCCOc1cc(OCCCOc2ccc(S(C)(=O)=O)cc2)cc(N(CC(=O)O)CC(=O)O)c1 — lower, 118 to 120 °C
- CN(C)C1(c2ccccc2)CCC(NC(=S)NCCc2c[nH]c3ccccc23)CC1 (stereo not given) — lower, 98 to 103 °C
- CN1C(=O)CC[C@]2(C)c3ccc(-c4cccc5cnccc45)cc3CC[C@@H]12 — higher, 182 to 184 °C
- Nn1cccc1C(=O)c1ccccc1Cl — lower, 76 to 78 °C
- Cc1oc(C2CC2)nc1COc1ccc(CC(OC(C)C)C(=O)O)c2sccc12 (stereo not given) — lower, 71 to 72 °C
- Cc1cc(C#N)cc(C(=O)Nc2ccnc(Cl)c2)n1 — higher, 238 °C
- NC(=O)C(c1ccccc1)(c1ccccc1)C1CCN(C2CCCCC2)C1 (stereo not given) — lower, 119 to 121 °C
- O=C1C(Br)=CC2(C=C1Br)CCNC1=C2C2=NCCc3c[nH]c(c32)C1=O — higher, > 360 °C
- O=C1C[C@@H]2O[C@@H](CSc3ccccc3)CN12 (racemic) — lower, 35.5 to 37 °C
- O=C(O)C(=O)N1CCc2cc(S(=O)(=O)N3CCN(c4cccc(Cl)c4)CC3)ccc21 — higher, 219 to 220 °C
- COc1ccc(-c2cc(CO)c(=O)n(Cc3ccc(F)cc3)n2)cc1F — lower, 127 to 130 °C
- Cc1c(Br)ccc(N)c1C#N — lower, 111 to 113 °C
- CCCC1(CC)Cc2cc(OCC(=O)O)c(Cl)c(Cl)c2C1=O (stereo not given) — lower, 126 °C
- CC(C)OC(=O)c1cc(-n2c(N)c(C#N)cnc2=O)c(F)cc1Cl — higher, 212 to 213 °C
- Cn1cc(-c2cc(-c3cnc4c(c3)CCN4)ccn2)n(-c2ccc(C(C)(C)C#N)cc2)c1=O — higher, 247 °C
- COc1ccc(-n2c(=O)c(C(=O)Cl)nc3c(Cl)cccc32)cc1 — lower, 131 to 134 °C
- CS(=O)CCNC(=O)CC(O)(Cn1cncn1)c1ccc(Cl)cc1Cl (stereo not given) — lower, 168 to 170 °C
- COCCc1nc2c(N)nc3cc(OCc4cccc(N)c4)ccc3c2n1CC(C)(C)O — higher, 203 to 206 °C
- Cc1ccc(-c2ccccc2)cc1CNC(=O)N(C)N — lower, 91.6 °C
- CCOC(=O)C(C)(C)OC(=O)c1cc(-n2c(=O)cc(CC)[nH]c2=O)c(F)cc1Cl — lower, 166 to 167 °C
- O=C(CCCCO)c1cccnc1 — lower, 36 to 38 °C
- Cc1cc(F)ccc1Nc1nc(N(C)c2ccccc2)c2cccc(OCCCN3CCOCC3)c2n1 — lower, 133 to 134 °C
- CCOc1nn(Cc2ccc(OCc3cncc(-c4ccccc4)c3)cc2)cc1CCC(=O)O — lower, 92 to 93 °C
- COc1ccc(Cc2nc3n(c2Cc2ccc(OC)cc2)CCS3)cc1 — lower, 154 to 156 °C
- COc1ccc(OCCCN2CCC(C(O)(c3ccc(F)cc3)c3ccc(F)cc3)CC2)cc1 — lower, 107 to 108 °C
- O=C(O)C(CNC(=O)C1Cc2ccccc2N1S(=O)(=O)c1ccc(-c2cccc(C(F)(F)F)c2)cc1)Cc1ccccc1 (stereo not given) — lower, 85 to 90 °C
- NS(=O)(=O)c1sc(Cl)cc1C(=O)CBr — lower, 147 to 148 °C
- COC(=O)CNc1ccc(C(C)C)cc1 — lower, 35 to 36 °C
- COc1ccccc1N1CCN(CC(O)COc2ccccc2C=C=O)CC1 (stereo not given) — lower, 116 to 118 °C
- CC(=O)OCc1nc(Cl)cc(N2CCCC2)n1 — lower, 101 to 103 °C
- Cc1nc2cc(NC(=O)c3cc4cc(Cl)ncc4n3Cc3cccc(F)c3)ccc2n1C — higher, 240 to 242 °C
- NC(=O)CNc1ncccc1NC(=O)c1ccccc1 — higher, 194 to 195 °C
- CCOC(C)O[C@H]1C(=O)N[C@H]1C1CCCCC1 (stereo not given in full) — lower, 87 to 89 °C
- CC(=O)NC(=O)Nc1ccc(OS(=O)(=O)c2cccc(C(F)(F)F)c2)cc1[N+](=O)[O-] — higher, 196 °C
- CCCCc1nc(Cl)c(CO)n1Cc1ccc(NC(=O)C(NC(=O)OC(C)(C)C)C(=O)O)cc1 (racemic) — lower, 144 to 147 °C
- N#CCC(=O)NNC(=O)Nc1ccsc1CC(=O)Oc1ccc([N+](=O)[O-])cc1 — lower, 132 to 135 °C
- Cc1nc(N)sc1S(=O)(=O)NCCO — lower, 151 °C
- Cc1oc(-c2ccccc2)nc1CCCCCC(CO)CO — lower, 71 to 74 °C
- CCOC(=O)N1CCN(c2cn(C)c3nc(OCc4ccccn4)ccc23)C(=O)C1 — lower, 143 °C
- CSc1cc(C)nc(SC)c1NC(=O)CN1CCN(CCSc2nc3ccccc3[nH]2)CC1 — lower, 96 to 97 °C
- COc1cc(Nc2c(C#N)cnc3cc(-c4cc(CN5CCOCC5)c(CN5CCOCC5)s4)ccc23)c(Cl)cc1Cl — lower, 118 to 125 °C
- COC1=C(OC)C(=O)C(CCCCCCCCCC(=O)N[C@H](CCC(=O)O)C(N)=O)=C(C)C1=O — lower, 136 to 137 °C
- O=S(=O)(Nc1nc(O)ncc1F)c1ccccc1 — higher, 221 to 223 °C
- C=C1C[C@@H]2[C@H](CC[C@]3(C)C(=O)CC[C@@H]23)[C@@]2(C)CCC(=O)C(SCC)=C12 — lower, 140 to 145 °C
- CCC(C(=O)N(C)C)n1nc(-c2ccccc2)cc1C (stereo not given) — lower, 117 to 120 °C
- COc1cc(OC)nc(Sc2nccc(-c3ccc(Cl)cc3)c2C(=O)O)n1 — higher, 219 to 223 °C
- CC(=NO)c1ccc(C2=CCCCC2)cc1 — lower, 154 to 156 °C
- CCN(CC)CCCNC(=O)C(C)n1cc(-c2ccccc2)c(-c2ccccc2)n1 (stereo not given) — lower, 87 to 89 °C
- CCOc1ccc2c(c1)C(C)(c1cc(N)ccc1Cl)C(=O)N2 (stereo not given) — lower, 166 °C
- Clc1cccc(-c2cc(Cl)nc3ccc(Br)cc23)c1 — lower, 125 °C
- COc1ccc2c(c1)CC(C)C1C2CCC2(C)C(=O)CCC12 (stereo not given) — lower, 167 to 170 °C
- C1CCC(CC2CNCCNCCNCCNCCN2)CC1 (stereo not given) — lower, 87 to 89 °C
- CCCc1ccc(OCC(C)O)c2c(=O)cc(C(=O)O)oc12 (stereo not given) — lower, 134 to 136 °C
- COc1cc2[nH]cc(C3CN4CCC3CC4)c2cc1OC (stereo not given) — higher, 243 to 245 °C
- Cc1[nH]n(Cc2cccc(C(N)=O)c2)c2nc(-c3ccncc3)nc(=O)c1-2 — higher, > 300 °C
- CN1CCC(c2cnc3ccc(C(=O)Nc4ccc(F)cc4)[nH]c2-3)CC1 — lower, 114 to 116 °C

— a melting point compilation (Tetko et al.; mined from patent text by program, amines drawn as free bases though some values may be those of a salt)
